Values of other authors as cited in patent US6552066B1, “Protein tyrosine kinase inhibitors for treating osteoarthritis” (priority 1995, dated 2003).

Key:
bovine cartilage explant = details: cited from earlier work
[1] = tested on: progression of osteoarthritis; details: animals; cited from earlier work

Q: What does the source list for NC1=N/C(=C2/CCNC(=O)c3[nH]ccc32)C(=O)N1 [Z-debromohymenialdisine]?
A: inhibition of cartilage degradation in the bovine cartilage explant assay (bovine cartilage explant): inhibit cartilage degradation; progression of osteoarthritis [1]: slows the progression of osteoarthritis
